In patent publication US20220372441A1, “MICRORNAS ENRICHED IN MEGAKARYOCYTIC EXTRACELLULAR VESICLES AND USES THEREOF” (University of Delaware, priority 2019, published 2022):

Columns and labels:
CD34+ HSPCs [1] = experiment: Signaling-inhibitor experiments: MkMP-induced Mk differentiation of inhibitor-pretreated CD34+ HSPCs; conditions: for percent of cells CD34−CD41+: day 12, representative quadrant plots (FIG. 11E); for fraction of cells CD34+CD41−: day 7, representative quadrant plots (FIG. 11E)
Method: Signaling-inhibitor experiments: 60,000 CD34^+ HSPCs were pretreated with signaling inhibitors for 30 min, followed by co-culture with MkMPs (30 MPs per cell) in IMDM supplemented with 10% BIT 9500 and 50 ng/mL SCF. Inhibitors were replenished at days 3 and 7. At day 4, 7 and 12, cells were harvested for flow cytometric analysis of CD41, CD42b, and CD34 expression. Total-cell and Mk counts were measured at day 7.
To further investigate the effects of MkMPs in promoting megakaryocytic differentiation of CD34^+ HSPCs, and how this might relate to the miR content of MkMPs, we next probed likely signaling pathways using kinase inhibitors. […] Briefly, CD34^+ HSPCs were pretreated with kinase inhibitors of chosen signaling pathways (JNK, p38, MEK, PI3K, Akt and mTOR inhibitors, Table 6) for 30 min before they were co-cultured with MkMPs at the ratio of 10 MkMPs/cell. Inhibitors were replenished at days 3 and 7. CD41, CD42b and CD34 expression, and cell numbers were measured at days 4, 7, and 12.

PTEN [2] = experiment: PTEN protein expression by flow cytometry in CD34+ HSPCs; assay type: cell-based, human; conditions: JNK inhibitor pretreatment, MkMP co-culture 24 hours (FIG. 13A)
Method: Cells were fixed in 4% paraformaldehyde for 15 min at room temperature, followed by the permeabilization in 90% methanol for 30 min at 4° C. After washing in PBS, cells were stained with Alexa 647-conjugated anti-mTOR (#5048S), PE-conjugated anti-Akt (#8790S), or Alexa 488-conjugated anti-p-Akt (#4071S) antibodies from Cell Signaling, or Alexa 647-conjugated anti-p-mTOR (#564242) from BD bioscience, for 1 hour at room temperature, followed by flow-cytometric analysis.
Phosphatase and TENsin homolog (PTEN) is a negative regulator of PI3K/Akt signaling in HSC development. Loss of PTEN results in enhanced cellular proliferation and megakaryopoiesis due to overactive of PI3K/Akt signaling. We hypothesized that activation of PI3K/Akt/mTOR signaling by MkMPs might be PTEN mediated. We thus examined the mRNA level of PTEN by quantitative PCR, and PTEN protein level by flow cytometry and immunoblotting. The impact on PTEN mRNA levels appears higher than that on protein levels. Compared to the vehicle control, PTEN protein or mRNA levels were around 10% or 30% lower, respectively, in HSPCs co-cultured with MkMPs (FIGS. 13A and 13B). […] These statistically-significant but relatively low-impact effects on PTEN protein expression would be expected given that the measurements were done within the first 24 hours of the co-culture, rather than late in the co-culture.

PTEN [3] = experiment: PTEN mRNA level by qRT-PCR in CD34+ HSPCs; assay type: cell-based, human; conditions: JNK inhibitor pretreatment, MkMP co-culture 24 hours (FIG. 13B)
Method: Quantitative reverse transcription PCR (qRT-PCR): CD34^+ HSPCs pretreated with JNK inhibitor or solution without an inhibitor were co-cultured with MkMPs, non-targeting miR-loaded MkMPs, miR-486-5p inhibitor-loaded MkMPs at 30 MPs per cell, or vehicle control. At 24 hr, cells were harvested and total RNA was isolated, reversed transcribed for qPCR assay as described by Kao and Papoutsakis (Sci Adv. 2018; 4:eaau6762). qPCR assays for PTEN and GAPDH were performed with PerfeCTa SYBR Green Supermix (QuantaBio) and the following primers: Forward (5′-[…]-3′) (SEQ ID NO: 1), Reverse (5′-[…]-3′) (SEQ ID NO: 2) for PTEN, and Forward (5′-[…]-3′) (SEQ ID NO: 3), Reverse (5′-[…]-3′) (SEQ ID NO: 4) for GAPDH. PTEN mRNA level were quantified by normalized to GAPDH mRNA level as the reference gene.
Phosphatase and TENsin homolog (PTEN) is a negative regulator of PI3K/Akt signaling in HSC development. Loss of PTEN results in enhanced cellular proliferation and megakaryopoiesis due to overactive of PI3K/Akt signaling. We hypothesized that activation of PI3K/Akt/mTOR signaling by MkMPs might be PTEN mediated. We thus examined the mRNA level of PTEN by quantitative PCR, and PTEN protein level by flow cytometry and immunoblotting. The impact on PTEN mRNA levels appears higher than that on protein levels. […]

CD34+ HSPCs [4] = experiment: Transfection of CD34+ HSPCs with miR mimics, culture without TPO; flow cytometry of CD41/CD42b, Mk and total cell counts; assay type: cell-based, human
Method: Transfection of CD34^+ HSPCs with miR mimics: 200,000 CD34^+ cells were freshly thawed and cultured in IMDM supplemented with 20% BIT 9500, and 100 ng/mL SCF. After 3 hours, cells were transfected with 8 μM of miR mimics, non-targeting miR (miR-NC), or without miR (No miR) using the Amaxa Nucleofector II with program U-08. […] Cells cultured in TPO-supplemented medium (100 ng/ml TPO), or co-cultured with MkMPs served as positive controls (TPO, MkMP). The medium was replaced one day after transfection. […] At day 13, cells were harvested for serotonin (5-HT), von willebrand factor (vWF), beta 1 tubulin (TUBB1), and DAPI staining, as described^7. The images were taken by ZEISS LSM 880 multiphoton confocal microscope. At day 16, cells were harvested for ploidy analysis by flow-cytometric analysis as described by Lindsey and Papoutsakis (Br J Haematol. 2011; 152(4):469-484).
To determine if there is a dose effect of miR mimics on Mk differentiation of HSPCs, using CD41 expression as the key early Mk-differentiation marker, we carried out a pilot study with two donor CD34^+-cell samples. CD34^+ HSPCs were transfected with high (8 μM) or low (2 μM) concentrations of miR-486-5p or miR-22-3p (generally known as miR-22) mimics were and cultured without TPO. […]

[5] = day 7, MkMP co-culture, inhibitor 10 uM (FIG. 11A)

| Molecule | percent of cells CD34−CD41+ (CD34+ HSPCs [1]) | CD41 expression (CD34+ HSPCs [1]; [5]) | fraction of cells CD34+CD41− (CD34+ HSPCs [1]) | also measured |
| --- | --- | --- | --- | --- |
| O=c1cc(N2CCOCC2)oc2c(-c3ccccc3)cccc12 [LY-294002] | 16.5% |  |  |  |
| CO[C@H]1C[C@@H]2CC[C@@H](C)[C@@](O)(O2)C(=O)C(=O)N2CCCC[C@H]2C(=O)O[C@H]([C@H](C)C[C@@H]2CC[C@@H](O)[C@H](OC)C2)CC(=O)[C@H](C)/C=C(\C)[C@@H](O)[C@@H](OC)C(=O)[C@H](C)C[C@H](C)/C=C/C=C/C=C/1C [Rapamycin] | 6.0% | 32.1% | 48.3% |  |
| C[S+]([O-])c1ccc(-c2nc(-c3ccncc3)c(-c3ccc(F)cc3)[nH]2)cc1 (centres unmarked) [SB203580] |  |  | 43.4% | CD41 expression (CD34+ HSPCs [1]; day 12, MkMP co-culture, compared to MkMP control (FIG. 11B)): significantly suppressed CD41 expression |
| Oc1c2ccccc2c2c3c(cccc13)N=N2 [SP600125] | 12.6% | 32.8% | 52.1% | PTEN protein level above vehicle-control level (PTEN [2]): 17%; PTEN mRNA level above vehicle-control level (PTEN [3]): 260% |
| COC[C@H]1OC(=O)c2coc3c2[C@@]1(C)C1=C(C3=O)[C@@H]2CCC(=O)[C@@]2(C)C[C@H]1OC(C)=O [Wortmannin] | 25.3% |  |  |  |
| TPO: recombinant human thrombopoietin, 100 ng/ml, positive control |  |  |  | percent of cells expressing CD41 (CD34+ HSPCs [4]; day 13, electroporated CD34+ cells, miR mimics without TPO, TPO 100 ng/ml or MkMP co-culture as positive controls (FIGS. 7A, 7B)): 56%; percent CD41+CD42b+ double positive cells (CD34+ HSPCs [4]; day 13, representative quadrant plots (FIG. 7D)): 38.9% |
